Experimental data as given in patent publication US8541670B2, “Compositions and methods for inhibiting tumor cell growth” (priority 2007, dated 2013).
pIC50: −log10 of the molar value. “And” between values parts separate entries of the source, which are not always exact repeats. Identical values can stand only once. Where no end group is shown, it is not given here.

Key:
PI3K[…] = test: In vitro kinase assay PI3K[…]; type: biochemical; settings: ten times higher concentration than 0.1 μM
Procedure: As a specific substrate, the phosphorylation level of GSK-3[…] at Ser-9 was also evaluated. […] The decrease was specific to the AKT phosphorylation site on GSK-3[…] at Ser-9, since a change in the phosphorylation level of GSK-3[…] at Tyr-216 or GSK-3[…] at Tyr-279 was not observed. Moreover, the in vivo reduction of the phosphorylation of AKT substrates was more obvious at the injection site, since a significant change in the phosphorylation of AKT substrates in the frontal cortex or cerebellum between the two hemispheres was not observed. […] To test the specificity/selectivity of ZaTa as the inhibitor of AKT1 versus the other major kinases, a series of in vitro kinase assays was performed at IC50 for AKT1 and at ten times higher concentrations. A panel of the following 32 kinases was first tested in vitro using the active form of each kinase and a specific substrate: AKT2, AKT3, PKA, PKC[…], PKC, PI3K[…], PI3K[…], PI3K, SGK, PAK2, PAK3, SAPK2/p38, Abl, CaMKII, CDK1/cyclinB, CDK5/p35, CK1, CK2, CSK, GSK3[…], GSK3[…], JNK1[…]1, MAPK1, p70S6K, PDGFR[…], PDGFR[…], PDK1, PKG1[…], TrkB, JAK2, JAK3, and Syk. […] However, at ten times higher concentration, ZaTa inhibited AKT2 (63%), PI3K[…] (72%), p70S6K (64%), SGK (73%), PAK3 (83%), JAK3 (79%), TrkB (84%), and Abl (42%). […]

p70S6K = biological target: T1, p70S6K (Homo sapiens, UniProt P23443); test: Cell-based kinase assay, phosphorylation of intracellular substrate (Ser-235/236 S6)
T1 construct: endogenous in cells
Procedure: As a specific substrate, the phosphorylation level of GSK-3[…] at Ser-9 was also evaluated. […] The decrease was specific to the AKT phosphorylation site on GSK-3[…] at Ser-9, since a change in the phosphorylation level of GSK-3[…] at Tyr-216 or GSK-3[…] at Tyr-279 was not observed. Moreover, the in vivo reduction of the phosphorylation of AKT substrates was more obvious at the injection site, since a significant change in the phosphorylation of AKT substrates in the frontal cortex or cerebellum between the two hemispheres was not observed. […] To test the specificity/selectivity of ZaTa as the inhibitor of AKT1 versus the other major kinases, a series of in vitro kinase assays was performed at IC50 for AKT1 and at ten times higher concentrations. […]
Phosphorylation sites for kinases analyzed herein included Ser-235/236 S6 (a substrate for p70S6K), Tyr-207 CRKL (a substrate for Abl; Zipfel, et al. (2004) supra), Ser-241 PDK1 (a substrate for PI3K), Tyr-1022/1023 JAK1 (a substrate for JAK3; Wang, et al. (2003) supra), Ser-421 Huntingtin (a substrate for SGK; Rangone, et al. (2004) supra), Tyr-783 PLC (a substrate for TrkB; Middlemas, et al. (1994) supra), and Ser-338 cRaf (a substrate for PAK3; King, et al. (1998) supra).

AKT1 [1] = biological target: T2, AKT1 (Homo sapiens, UniProt P31749); test: AKT kinase assay with Ser-9 GSK-3 GST fusion protein substrate (western blot, phospho-specific antibody); type: biochemical; settings: wild-type active AKT
T2 construct: purchased Upstate Biotechnology
Procedure: Since the observed effect of H-89 and forskolin on AKT activity in cultured cells could be interpreted as the result of the regulatory interference of other signaling pathways, in vitro analysis was carried using purified, active forms of AKT and PKAc to examine the direct result of this interaction on the kinase catalytic activity. […] This decrease in the catalytic activity of AKT by PKAc was inhibited when the PKA inhibitor was added to the reaction mixture. […] The decrease in the catalytic activity of AKT by PKAc was also observed with two mutants and active forms of AKT1, one with a deletion in the PH domain and the other one with a Ser473Asp mutation. As with wild-type AKT, the inhibitory effect of PKAc on the mutants was reversed in the presence of the PKA inhibitor peptide. […]
For non-radioactive kinase assays, typically 25 ng of active AKT1 or PKAc (Upstate Biotechnology) was used in a kinase assay reaction buffer (20 mM MOPS, pH 7.2, 25 mM […]-glycerophosphate, 5 mM EGTA, 1 mM Na3VO4, 1 mM dithiothreitol, 75 mM MgCl2, and 0.5 mM ATP) in the presence of either 1 μL of Ser-9 GSK-3 GST fusion protein (Cell Signaling), or recombinant DARPP-32 (10 μg). […] A 5 μL aliquot of the reaction was transferred to phosphocellulose paper, washed for 30 minutes with dH2O, and CPM of samples read in scintillation counter.

AKT1 [2] = biological target: T2, AKT1; test: AKT1 radioactive in vitro kinase assay (32P incorporation into Ser-21 GSK-3 substrate peptide); type: biochemical
Procedure: AKT1 catalytic activity was determined by measuring the incorporation of −^32P into Ser-21 glycogen synthase kinase 3[…] (GSK-3[…]) substrate peptide. Histogram bars represent the number of −^32P counts per minute (CPM). Reactions were carried out in the presence of different concentrations of the ZaTa peptide (SEQ ID NO:60), as well as a control peptide (SEQ ID NO:59) which shares 11 out of 17 amino acids in common with the N-terminus of the ZaTa peptide.
Of particular interest with regard to inhibitory activity toward AKT was peptide […](SEQ ID NO:60) which flanked the Thr-197 phosphorylation site of PKAc. […] Furthermore, the inhibitory effect of ZaTa peptide was compared with an adjacent peptide ([…] SEQ ID NO:59), a peptide that overlaps with the 11 N-terminal amino acid residues of the ZaTa peptide and carries the Thr-197 phosphorylation site. In this assay, the level of incorporation of −^32 P into Ser-21 GSK-3[…] substrate peptide was used as the measure of AKT1 in vitro catalytic activity.
For non-radioactive kinase assays, typically 25 ng of active AKT1 or PKAc (Upstate Biotechnology) was used in a kinase assay reaction buffer (20 mM MOPS, pH 7.2, 25 mM […]-glycerophosphate, 5 mM EGTA, 1 mM Na3VO4, 1 mM dithiothreitol, 75 mM MgCl2, and 0.5 mM ATP) in the presence of either 1 μL of Ser-9 GSK-3 GST fusion protein (Cell Signaling), or recombinant DARPP-32 (10 μg). For the radioactive kinase assays, typically 25 ng of kinase was added to the kinase assays reaction buffer (20 mM MOPS, pH 7.2, 25 mM […]-glycerophosphate, 5 mM EGTA, 1 mM Na3VO4, 1 mM dithiothreitol) containing 30 μM of dephosphorylated Ser-21 GSK-3 substrate peptide (Upstate Biotechnology) in the presence of different concentrations of inhibitor. Reactions were initiated by adding [−^32P] ATP (10 μCi/reaction) which was diluted in the reaction buffer, plus 500 μM cold ATP and 75 mM MgCl2. Kinase reactions were incubated 30° C. for 10-20 minutes. A 5 μL aliquot of the reaction was transferred to phosphocellulose paper, washed for 30 minutes with dH2O, and CPM of samples read in scintillation counter.

T2 sequence (P31749 whole entry, the tested form may be a part): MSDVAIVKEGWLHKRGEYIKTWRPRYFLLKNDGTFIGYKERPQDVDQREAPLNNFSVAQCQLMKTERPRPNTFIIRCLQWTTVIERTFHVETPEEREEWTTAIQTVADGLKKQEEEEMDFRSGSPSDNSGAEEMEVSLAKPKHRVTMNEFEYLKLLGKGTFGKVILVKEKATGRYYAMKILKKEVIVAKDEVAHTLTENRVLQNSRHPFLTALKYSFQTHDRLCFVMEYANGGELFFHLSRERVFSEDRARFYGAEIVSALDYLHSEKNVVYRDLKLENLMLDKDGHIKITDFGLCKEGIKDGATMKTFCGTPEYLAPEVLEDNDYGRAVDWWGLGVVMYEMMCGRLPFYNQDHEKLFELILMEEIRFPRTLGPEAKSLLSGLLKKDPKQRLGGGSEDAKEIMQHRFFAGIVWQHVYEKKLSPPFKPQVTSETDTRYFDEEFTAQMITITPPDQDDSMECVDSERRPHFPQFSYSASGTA
T1 sequence (P23443 whole entry): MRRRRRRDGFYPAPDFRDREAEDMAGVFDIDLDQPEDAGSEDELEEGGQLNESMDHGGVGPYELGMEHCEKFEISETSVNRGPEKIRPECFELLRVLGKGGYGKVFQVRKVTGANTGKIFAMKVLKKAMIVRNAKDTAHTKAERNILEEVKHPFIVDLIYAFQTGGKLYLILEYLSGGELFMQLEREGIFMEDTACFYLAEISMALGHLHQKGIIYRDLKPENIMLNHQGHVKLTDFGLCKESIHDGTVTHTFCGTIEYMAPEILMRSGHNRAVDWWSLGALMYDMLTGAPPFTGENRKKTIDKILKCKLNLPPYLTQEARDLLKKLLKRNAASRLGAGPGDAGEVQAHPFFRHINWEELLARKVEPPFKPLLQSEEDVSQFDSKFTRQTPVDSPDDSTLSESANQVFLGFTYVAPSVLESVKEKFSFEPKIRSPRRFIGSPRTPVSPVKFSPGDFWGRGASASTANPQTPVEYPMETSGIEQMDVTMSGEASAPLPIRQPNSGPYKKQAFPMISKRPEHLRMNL

AKRVKGRTWTLCGTPEY [ZaTa]
inhibition of PI3K[…] (PI3K[…]): 72%
inhibition of p70S6K in cells (p70S6K): could inhibit p70S6K
AKT catalytic activity, phosphorylation level of Ser-9 GSK-3 GST substrate (AKT1 [1]): significantly reduced
pIC50 (AKT1 [2]; 32P incorporation into Ser-21 GSK-3 substrate peptide, read-out: IC-50, AKT1 catalytic activity in vitro): ~7.00 and 7.00
IC-50 of the ZaTa peptide (in words) (AKT1 [2]; FIG. 1 legend): within a nanomolar range
whether peptide is a substrate for AKT (AKT1 [2]; control kinase reactions with peptide and AKT only): not a substrate for AKT
